What was measured:
RG2 glioma cells [1] = test: Detection of internalized phage particles by immunofluorescence microscopy (saponin+/saponin−); format: cell-based, rat; details: saponin-treated vs untreated RG2 cells
Procedure: FIG. 5(a) illustrates the detection of internalized phage particles by immunofluorescence microscopy. RG2 glioma cells were grown on chamber slides and incubated with DSTKSGNM (SEQ ID NO:3) phage. In cells treated with saponin (saponin+) to permeabilize cell membranes, both internalized and extracellular bound phage particles were accessible for staining. Without saponin treatment (saponin−), FIG. 5(a) illustrates that only extracellular phage were available for detection. These slides were then processed for immunofluorescence microscopy with antibody against filed phage, followed by a fluorescein-conjugated secondary antibody to visualize phage particles.

RG2 glioma cells [2] = test: Cytotoxicity by MTT assay on glioma cells; format: cell-based, rat; details: 10 or 100 uM, 48 hours incubation
Procedure: (§1) Using glioma-selective sequences from the second family shown in FIG. 4 (and in FIG. 5(a)), a fusion molecule containing the same identical cell-targeting peptide coupled to a cell-killing peptide was designed and synthesized. Glioma cells (malignant cells originating from astrocytes) and normal astrocytes were treated with increasing concentrations (10 or 100 uM) of cytotoxic peptide alone, or cytotoxic peptide linked to the targeting peptide, i.e. the peptide drug, and cytotoxicity was evaluated by MTT assay (this assay measures cell viability).
(§2) FIG. 5(b) further illustrates the cytotoxic effect of d(KLAKLAK)2(SEQ ID NO:4) and DSTK-GG-d(KLAKLAK)2(SEQ ID NO:5) peptides on the glioma cells and the normal astrocytes. RG2 glioma cells and normal rat astrocytes were plated in quadruplicate in 96-well plates for 24 hours. Increasing concentrations (10 or 100 uM) of cytotoxic peptide alone, d(KLAKLAK)2(SEQ ID NO:4), or cytotoxic peptide linked to targeting peptide, DSTK-GG-d(KLAKLAK)2(SEQ ID NO:5), were added to the cells for 48 hours incubation. Cytotoxicity of therapeutic peptides were evaluated by MTT assay.

normal rat astrocytes = test: Cytotoxicity by MTT assay on normal astrocytes; format: cell-based; details: 10 or 100 uM, 48 hours incubation
Procedure: as §1, §2

Row | Molecule | internalization of phage by cells (RG2 glioma cells [1]) | cytotoxic effect on glioma cells (MTT, cell viability) (RG2 glioma cells [2]) | effect on normal astrocytes (MTT, cell viability) (normal rat astrocytes)
1 | DSTKSGNM [DSTKSGNM phage] | internalized | – | –
2 | CC(C)C[C@@H](NC(=O)[C@@H](CCCCN)NC(=O)CNC(=O)CNC(=O)[C@H](CCCCN)NC(=O)[C@@H](NC(=O)[C@H](CO)NC(=O)[C@@H](N)CC(=O)O)[C@@H](C)O)C(=O)N[C@H](C)C(=O)N[C@H](CCCCN)C(=O)N[C@H](CC(C)C)C(=O)N[C@H](C)C(=O)N[C@H](CCCCN)C(=O)N[C@H](CCCCN)C(=O)N[C@H](CC(C)C)C(=O)N[C@H](C)C(=O)N[C@H](CCCCN)C(=O)N[C@H](CC(C)C)C(=O)N[C@H](C)C(=O)N[C@H](CCCCN)C(=O)O [peptide drug, DSTK-GG-d(KLAKLAK)2] | – | clear cytotoxic effect | None of the peptides, with or without targeting, demonstrated any effect
3 | CC(C)C[C@@H](NC(=O)[C@H](N)CCCCN)C(=O)N[C@H](C)C(=O)N[C@H](CCCCN)C(=O)N[C@H](CC(C)C)C(=O)N[C@H](C)C(=O)N[C@H](CCCCN)C(=O)N[C@H](CCCCN)C(=O)N[C@H](CC(C)C)C(=O)N[C@H](C)C(=O)N[C@H](CCCCN)C(=O)N[C@H](CC(C)C)C(=O)N[C@H](C)C(=O)N[C@H](CCCCN)C(=O)O [cytotoxic peptide alone, d(KLAKLAK)2, reference compound] | – | no effect | None of the peptides, with or without targeting, demonstrated any effect

Reference: US7642063B2, “Methods for targeting and killing glioma cells” (Auburn University, priority 2004, dated 2010)
